Assay [1] has as its target T1, D3 DAR (Homo sapiens, UniProt P35462). The assay is described as follows: Functional curve-shift assays using the DiscoverX β-arrestin recruitment assay. More on the design: host or cells: CHO. In kind it is cell-based. The conditions noted are these: for mode of antagonism in curve-shift assays: versus agonist (dopamine, pramipexole); for IC50: agonist dopamine, read-out: Functional IC50 for decreasing the Emax of dopamine. The text has this:
To further assess the mechanism of action of Cmp. […] 1 (FIGS. 4B and 4D). […] Average curves are shown (mean±SEM from at least 3 experiments each performed in triplicate). […] In contrast, increasing concentrations of Cmp.
1. FIG. 6A-C panels show concentration-response curves of dopamine in the absence or presence of increasing concentrations of compound. Cmp. […] 18 (FIG. 6A), Cmp. 5 (FIG. 6B), and Cmp. 17 (FIG. 6C), respectively. Average curves are shown (mean±SEM from at least 3 experiments, each performed in triplicate).
(§1) A D3 DAR β-arrestin cell line from DiscoverX (Fremont, CA) was used as described in the protocol below (Table 2). A CHO cell line engineered to overexpress the D3 DAR fused with a small 42-amino acid fragment of β-galactosidase called ProLink™ and a fusion protein consisting of β-arrestin and a larger N-terminal deletion mutant of β-galactosidase was used (DiscoverX catalogue number 93-0579C2). When the D3 DAR is activated by dopamine, it stimulates binding of β-arrestin to ProLink-tagged D3 DARs, and the two complementary parts of β-galactosidase form a functional enzyme. When substrate (PathHunter® Detection reagent, DiscoverX 93-0001) is added, β-galactosidase hydrolyzes it and generates a chemiluminescent signal.
Background: Recruitment of arrestin is a read-out of receptor activation apart from second messengers.

Assay [2] deals with T1, D3 DAR. In words: Go BRET activation assay, D3 DAR. The conditions noted are these: EC80 DA (30 nM); for Emax: 5 min, read-out: D3 Go BRET Imax. In kind it is cell-based. The protocol: Briefly, HEK293T cells transiently expressing either the D2 DAR or D3 DAR and GαoA-Rluc8, untagged-β1, and mVenus-γ2 were harvested with EBSS, plated in 96-well white plates at 20,000 cells/well in DPBS and incubated at RT for 45 min. […] BRET signal was determined by quantifying and calculating the ratio of the light emitted by mVenus (525 nm) over that emitted by RLuc8 (485 nm) using a PHERAstar FSX Microplate Reader (BMG Labtech).
(BRET reads energy transfer from a luciferase to a nearby fluorophore.)

The target of assay [3] is T1, D3 DAR. In words: DiscoverX D3 DAR β-arrestin recruitment assay. Type of assay: cell-based. More on the design: host or cells: CHO.
From the text: as §1

The target in assay [4] is D2 DAR (Homo sapiens, UniProt P14416). The assay is described as follows: DiscoverX D2 DAR β-arrestin recruitment assay. In kind it is cell-based. More on the design: host or cells: CHO. The conditions noted are these: for D2 DAR Imax / IC50: EC80 concentration of DA (1 μM); for antagonism of dopamine activation of the D2 DAR: DiscoverX β-arrestin assay, FIG. 2B. The text has this: For a secondary-screen and selectivity assays, DAR PathHunter®-arrestin GPCR cell lines from DiscoverX (Fremont, CA) were used. In the D2 DAR PathHunter®-arrestin GPCR cell line, the D2 DAR is overexpressed and fused with a small 42-amino acid fragment of β-galactosidase called ProLink™ on a CHO cellular background expressing a fusion protein of β-arrestin and a larger N-terminal deletion mutant of β-galactosidase (“enzyme acceptor”). When the D2 DAR is activated by dopamine, it stimulates binding of β-arrestin to the ProLink-tagged DAR and the two complementary parts of β-galactosidase form a functional enzyme. When substrate (PathHunter™ Detection reagent) is added, β-galactosidase hydrolyzes it and generates a chemiluminescent signal.
Sequence of D2 DAR (P14416 whole entry, the tested form may be a part): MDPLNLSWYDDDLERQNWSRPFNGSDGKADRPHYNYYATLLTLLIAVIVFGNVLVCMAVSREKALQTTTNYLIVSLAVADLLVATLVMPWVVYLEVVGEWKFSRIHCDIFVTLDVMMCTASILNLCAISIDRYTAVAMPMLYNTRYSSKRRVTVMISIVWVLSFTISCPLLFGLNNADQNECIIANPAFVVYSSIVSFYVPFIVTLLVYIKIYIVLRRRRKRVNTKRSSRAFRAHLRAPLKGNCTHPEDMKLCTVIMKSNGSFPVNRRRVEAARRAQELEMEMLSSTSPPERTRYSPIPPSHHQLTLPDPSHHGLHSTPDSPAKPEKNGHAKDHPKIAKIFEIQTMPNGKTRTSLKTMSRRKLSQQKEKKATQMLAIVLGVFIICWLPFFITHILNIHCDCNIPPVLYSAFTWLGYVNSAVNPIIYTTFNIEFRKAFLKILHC

In assay [5] the target is T1, D3 DAR. The assay is described as follows: [3H]-methylspiperone radioligand binding assay. Conditions: single high 40 μM concentration. The method, then: Compounds were tested for their ability to compete with the orthosteric radioligand [^3H]-methylspiperone for binding to the D3 DAR using HEK cells transiently transfected with the D3 DAR as described in the detailed protocol below presented in Table 5. Cells were cultured in Dulbecco's modified Eagle's Medium (Corning, catalogue no. 10-013) containing 10% FBS, 1,000 units/mL Penicillin, […] Streptomycin, 100 mM sodium pyruvate, 1 μg/mL Gentamicin, and […] G418. All cells were maintained at 37° C. in 5% CO2 and 90% humidity. For radioligand binding assays cells were removed mechanically using calcium-free Earle's balanced salt solution (EBSS). Intact cells were collected by centrifugation and then lysed with 5 mM Tris-HCl and 5 mM MgCl2 at pH 7.4. Homogenates were centrifuged at 30,000×g for 30 minutes. The membranes were re-suspended in EBSS (US Biological, catalogue no. E0249-05) pH 7.4 to a concentration of 16 μg/mL. For competition binding studies, membrane preparations were incubated for 90 minutes at room temperature with various concentrations of compound and a single concentration of [^3H]-methylspiperone (Perkin Elmer, NET856) in a reaction volume of […]. Non-specific binding was determined in the presence of 4 μM (+)-butaclamol (Sigma-Aldrich, catalogue no. D033). Bound ligand was separated from unbound by filtration through GF/C filters using a PerkinElmer cell harvester and quantified on a Top-count (PerkinElmer). Ki values were determined using Cheng-Prusoff equation from observed IC50 values and ligand Kd values from separate saturation experiments.

Setting [6] is: EC80 concentration of DA (30 nM), read-out: D3 DAR IC50.
The mark [7] stands for this setting: Imax=maximum inhibition, EC80 DA (30 nM).
The mark [8] stands for this setting: DiscoverX β-arrestin assay, FIG. 1A, 2A, read-out: IC50, inhibition of dopamine-stimulated β-arrestin recruitment to the D3 DAR.

The record followed here is US20240336604A1 (THE UNITED STATES OF AMERICA, AS REPRESENTED BY THE …, priority 2021, published 2024).

As a reminder, the IC50 is the point on the concentration scale where inhibition reaches its midpoint.

Where “and” joins values, the source holds several entries; their conditions need not be identical. Identical values can stand only once.

T1 sequence (P35462 whole entry): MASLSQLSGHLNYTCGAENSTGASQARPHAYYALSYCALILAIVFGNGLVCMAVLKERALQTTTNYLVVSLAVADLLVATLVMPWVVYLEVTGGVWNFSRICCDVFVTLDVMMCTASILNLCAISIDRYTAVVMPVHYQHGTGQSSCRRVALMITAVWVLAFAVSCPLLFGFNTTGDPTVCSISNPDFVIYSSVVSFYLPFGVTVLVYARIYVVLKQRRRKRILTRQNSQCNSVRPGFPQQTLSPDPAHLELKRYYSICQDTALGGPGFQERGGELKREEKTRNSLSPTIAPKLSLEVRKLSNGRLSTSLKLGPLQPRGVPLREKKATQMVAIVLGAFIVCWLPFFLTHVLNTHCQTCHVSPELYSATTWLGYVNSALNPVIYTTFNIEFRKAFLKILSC

Turning to `CCN1CCCC1CNC(=O)c1cc(S(N)(=O)=O)ccc1OC` (centres unmarked) [sulpiride, reference compound], the “mode of antagonism in curve-shift assays” value in assay [1] is “behaves in a competitive manner”.
Regarding `Cc1[nH]c(C)c(S(=O)(=O)Nc2ccc(C(F)(F)F)c(Br)c2)c1C(=O)N1CCCC1` [Cmp. 18], the Emax in assay [2] and in assay [3] (setting [7]) was 80 to 100% throughout. For the same compound, the IC50 in assay [2] was above 50 µM; in assay [3] (setting [6]), below 10 µM; in assay [4], above 100 µM; in assay [1], 3.6 µM. In addition, the “D2 DAR Imax” value in assay [4] is “NA (“NA” indicates not active)”. Moreover, in assay [1], the “mode of antagonism in curve-shift assays” value is on record as “noncompetitive antagonism”.
In the case of `Cc1cccc(CNC(=O)c2sc(=O)n(Cc3c(C)cccc3C)c2C)c1` [Cmp. 26], the “inhibition of [3H]-methylspiperone binding to the D3 DAR” value in assay [5] is “neither compound exhibited measurable ability to inhibit the binding”. In addition, in assay [3] (setting [8]), the IC50 was around 30 µM. In addition, in assay [3] (setting [6]), the IC50 lay in the range of 10 to 50 µM. In assay [3] (setting [7]), this compound had an Emax of 80 to 100%. In addition, in assay [4], the “antagonism of dopamine activation of the D2 DAR” value is “lacks ability to antagonize dopamine activation”, the “D2 DAR Imax” value is “NA (“NA” indicates not active)” and the half-maximal inhibitory concentration (IC50) is above 100 µM.
Regarding `Cc1ccc(NS(=O)(=O)c2c(C)[nH]c(C)c2C(=O)N2CCC(F)(F)C2)cc1Cl` [Cmp. 2], the Emax in assay [2] is above 100%; in assay [3] (setting [7]) it was 80 to 100%. Moreover, the IC50 in assay [2] is 10 to 50 µM; in assay [3] (setting [6]), 10 to 50 µM; in assay [4] it was above 100 µM. Also, the “D2 DAR Imax” value in assay [4] is listed as “NA (“NA” indicates not active)”.
For `CCOC(=O)C1=NOC2(C1)C(=O)Nc1ccc(OC(F)(F)F)cc12` (racemic) [Cmp. 25, Ethyl 2-oxo-5-(trifluoromethoxy)-4′H-spiro[indoline-3,5′-isoxazole]-3′-carboxylate], the IC50 in assay [2] was above 50 µM; in assay [3] (setting [8]) it was ~13 µM and ~15 µM; in assay [3] (setting [6]), 10 to 50 µM; in assay [4] it was above 100 µM. Besides, in assay [5], the “inhibition of [3H]-methylspiperone binding to the D3 DAR” value is “neither compound exhibited measurable ability to inhibit the binding”. The Emax in assay [3] (setting [7]) was 80 to 100%. Also, the “antagonism of dopamine activation of the D2 DAR” value in assay [4] is reported as “lacks ability to antagonize dopamine activation”. The “D2 DAR Imax” value in assay [4] is recorded as “NA (“NA” indicates not active)”.
Turning to `Cc1[nH]c(C)c(S(=O)(=O)Nc2cccc(Cl)c2)c1C(=O)N1CCCC1` [compound 14], the Emax was above 100% in assay [2] and 80 to 100% in assay [3] (setting [7]). For the same compound, the IC50 was 1 to 10 µM in assay [2], 10 to 50 µM in assay [3] (setting [6]) and above 100 µM in assay [4]. The “D2 DAR Imax” value in assay [4] is recorded as “NA (“NA” indicates not active)”.
With `Cc1ccc(NS(=O)(=O)c2c(C)[nH]c(C)c2C(=O)N2CCC2)cc1Cl` [compound 6], the Emax was above 100% in assay [2] and 80 to 100% in assay [3] (setting [7]). The figures for the IC50 in assay [2], in assay [3] (setting [6]) and in assay [4] were 10 to 50 µM, 10 to 50 µM and above 100 µM, respectively. In addition, the “D2 DAR Imax” value in assay [4] is given as “NA (“NA” indicates not active)”.
Consider `Cc1[nH]c(C)c(S(=O)(=O)Nc2ccc(F)c(Cl)c2)c1C(=O)N1CCCC1` [compound 13], for which the Emax in assay [2] is above 100%; in assay [3] (setting [7]) it was 80 to 100%. Moreover, the IC50 was 10 to 50 µM in assay [2], 10 to 50 µM in assay [3] (setting [6]) and above 100 µM in assay [4]. The “D2 DAR Imax” value in assay [4] was “NA (“NA” indicates not active)”.
Turning to `Cc1ccc(NS(=O)(=O)c2c(C)[nH]c(C)c2C(=O)N2CCCC2)cc1F` [compound 16], the Emax in assay [2] was above 100%; in assay [3] (setting [7]), 80 to 100%. The IC50 is 10 to 50 µM in assay [2], 10 to 50 µM in assay [3] (setting [6]) and above 100 µM in assay [4]. Besides, the “D2 DAR Imax” value in assay [4] is “NA (“NA” indicates not active)”.
For `Cc1[nH]c(C)c(S(=O)(=O)Nc2ccc(C(F)(F)F)c(Cl)c2)c1C(=O)N1CCCC1` [Cmp. 5], the Emax in assay [2] and in assay [3] (setting [7]) was 80 to 100% in each case. Further, the IC50 in assay [2] was 1 to 10 µM; in assay [3] (setting [6]), below 10 µM; in assay [4], above 100 µM; in assay [1] it was 2.3 µM. For the same compound, the “D2 DAR Imax” value in assay [4] is recorded as “NA (“NA” indicates not active)”. The “mode of antagonism in curve-shift assays” value in assay [1] was “noncompetitive antagonism”.
As for “N-(3-choro-4-methylphenyl)-2,5-dimethyl-4-(pyrrolidine-1-carbonyl)-1H-pyrrole-3-sulfonamide [compound 31]”, in assay [2], the “D3 Go BRET Imax” value is given as “++ (a “++” indicates a detectable Imax of more than 100%, indicative of possible inverse agonist activity)” and the IC50 was 10 to 50 µM. The IC50 in assay [3] (setting [6]) is above 100 µM. Further, in assay [3] (setting [7]), the “D3 DAR Imax” value was “Curve Incomplete”. For the same compound, in assay [4], the “D2 DAR Imax” value was “Curve Incomplete” and the IC50 is above 100 µM.
Consider `CCc1ccc(NS(=O)(=O)c2c(C)[nH]c(C)c2C(=O)N2CCCC2)cc1Cl` [compound 8], for which the Emax in assay [2] and in assay [3] (setting [7]) was 80 to 100% in each case. Moreover, the IC50 in assay [2] is 1 to 10 µM; in assay [3] (setting [6]), 10 to 50 µM; in assay [4] it was above 100 µM. For the same compound, the “D2 DAR Imax” value in assay [4] was “NA (“NA” indicates not active)”.
Consider `Cc1[nH]c(C)c(S(=O)(=O)Nc2ccc(C(F)(F)F)c(Cl)c2)c1C(=O)N(C)C` [compound 21, 4-(n-(3-chloro-4-(trifluoromethyl)phenyl)sulfamoyl)-N,N,2,5-tetramethyl-1H-pyrrole-3-carboxamide], for which the Emax in assay [2] was above 100%; in assay [3] (setting [7]), 80 to 100%. The IC50 in assay [2] was 10 to 50 µM; in assay [3] (setting [6]), below 10 µM; in assay [4], above 100 µM. For the same compound, the “D2 DAR Imax” value in assay [4] is recorded as “NA (“NA” indicates not active)”.
